According to patent US10168342B2, “Lipid probes and uses thereof” (THE SCRIPPS RESEARCH INSTITUTE, priority 2015, dated 2019):

What was measured:
Experiment in all cases: isoTOP-ABPP mapping of AEA-DA-modified peptides in Neuro2a cells
Format in all cases: cell-based
[1] = molecular target: T1, AEA-DA-modified peptides in Neuro2a cells (Mus musculus, UniProt O09061); conditions: AEA-DA-modified peptide PSMB1 O09061 127-146, SEQ ID NO 90; probe 100 μM, 12 replicates
T1 construct: endogenous in cells; host or cells: Neuro2a
T1 sequence (O09061 28-240): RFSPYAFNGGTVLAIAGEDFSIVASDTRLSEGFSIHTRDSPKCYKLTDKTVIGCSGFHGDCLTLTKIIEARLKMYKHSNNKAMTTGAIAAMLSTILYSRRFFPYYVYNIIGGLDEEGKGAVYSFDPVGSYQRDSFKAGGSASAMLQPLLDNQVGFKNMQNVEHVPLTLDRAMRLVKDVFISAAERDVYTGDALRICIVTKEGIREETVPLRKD

[2] = molecular target: T2, AEA-DA-modified peptides in Neuro2a cells (Mus musculus, UniProt P15626); conditions: AEA-DA-modified peptide GSTM2 P15626 109-123, SEQ ID NO 45; probe 100 μM, 12 replicates
T2 construct: endogenous in cells; host or cells: Neuro2a
T2 sequence (P15626 whole entry): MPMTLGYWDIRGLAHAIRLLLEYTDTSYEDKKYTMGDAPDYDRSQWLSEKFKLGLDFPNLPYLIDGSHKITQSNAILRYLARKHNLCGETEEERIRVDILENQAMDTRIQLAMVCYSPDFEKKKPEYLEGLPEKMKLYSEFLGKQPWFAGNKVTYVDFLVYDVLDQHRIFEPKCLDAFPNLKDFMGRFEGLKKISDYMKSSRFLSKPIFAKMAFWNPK

[3] = molecular target: T3, AEA-DA-modified peptides in Neuro2a cells (Mus musculus, UniProt P57780); conditions: AEA-DA-modified peptide ACTN4 P57780 839-855, SEQ ID NO 4; probe 100 μM, 12 replicates
T3 construct: endogenous in cells; host or cells: Neuro2a
T3 sequence (P57780 whole entry): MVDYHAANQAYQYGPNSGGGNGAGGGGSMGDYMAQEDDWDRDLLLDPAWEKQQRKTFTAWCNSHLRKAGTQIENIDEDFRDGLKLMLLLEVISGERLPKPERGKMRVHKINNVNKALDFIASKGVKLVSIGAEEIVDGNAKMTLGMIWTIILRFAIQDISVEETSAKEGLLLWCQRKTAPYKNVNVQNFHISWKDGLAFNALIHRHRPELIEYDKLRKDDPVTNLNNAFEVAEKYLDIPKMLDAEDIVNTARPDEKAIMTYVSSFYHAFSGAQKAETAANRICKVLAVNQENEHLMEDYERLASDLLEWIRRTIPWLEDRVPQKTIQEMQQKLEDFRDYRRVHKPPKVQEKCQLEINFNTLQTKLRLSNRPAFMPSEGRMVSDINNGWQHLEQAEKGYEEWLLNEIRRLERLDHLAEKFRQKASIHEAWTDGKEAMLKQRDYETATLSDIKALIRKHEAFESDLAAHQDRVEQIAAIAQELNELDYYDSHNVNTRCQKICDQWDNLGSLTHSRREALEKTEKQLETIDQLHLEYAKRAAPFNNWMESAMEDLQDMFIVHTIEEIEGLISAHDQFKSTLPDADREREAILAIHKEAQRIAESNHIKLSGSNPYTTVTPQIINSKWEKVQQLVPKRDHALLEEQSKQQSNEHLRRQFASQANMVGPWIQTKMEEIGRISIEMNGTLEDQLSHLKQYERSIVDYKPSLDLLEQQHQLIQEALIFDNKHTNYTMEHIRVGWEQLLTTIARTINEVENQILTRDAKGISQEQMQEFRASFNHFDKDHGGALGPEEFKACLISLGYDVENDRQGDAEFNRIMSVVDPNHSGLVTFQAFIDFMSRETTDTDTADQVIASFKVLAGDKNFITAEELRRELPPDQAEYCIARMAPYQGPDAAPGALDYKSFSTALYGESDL

[4] = molecular target: T4, AEA-DA-modified peptides in Neuro2a cells (Mus musculus, UniProt P61161); conditions: AEA-DA-modified peptide ACTR2 P61161 259-295, SEQ ID NO 5; probe 100 μM, 12 replicates
T4 construct: endogenous in cells; host or cells: Neuro2a

[5] = molecular target: T5, AEA-DA-modified peptides in Neuro2a cells (Mus musculus, UniProt P70333); conditions: AEA-DA-modified peptide HNRNPH 2 P70333 50-69, SEQ ID NO 50; probe 100 μM, 12 replicates
T5 construct: endogenous in cells; host or cells: Neuro2a
T5 sequence (P70333 whole entry): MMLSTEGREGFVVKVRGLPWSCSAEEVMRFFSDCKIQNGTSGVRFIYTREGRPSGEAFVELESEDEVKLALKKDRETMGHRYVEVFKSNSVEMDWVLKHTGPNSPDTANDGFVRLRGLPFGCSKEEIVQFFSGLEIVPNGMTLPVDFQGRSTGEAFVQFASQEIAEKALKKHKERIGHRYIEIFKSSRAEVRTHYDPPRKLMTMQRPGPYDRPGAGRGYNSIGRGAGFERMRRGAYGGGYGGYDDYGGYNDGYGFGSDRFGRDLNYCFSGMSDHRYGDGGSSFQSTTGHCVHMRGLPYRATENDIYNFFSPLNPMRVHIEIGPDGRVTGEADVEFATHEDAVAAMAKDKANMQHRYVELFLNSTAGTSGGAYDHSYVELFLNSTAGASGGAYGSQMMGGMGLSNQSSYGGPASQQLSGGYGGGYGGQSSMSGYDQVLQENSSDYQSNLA

[6] = molecular target: T6, AEA-DA-modified peptides in Neuro2a cells (Mus musculus, UniProt P84084); conditions: AEA-DA-modified peptide ARF5 P84084 39-60, SEQ ID NO 14; probe 100 μM, 12 replicates
T6 construct: endogenous in cells; host or cells: Neuro2a
T6 sequence (P84084 whole entry): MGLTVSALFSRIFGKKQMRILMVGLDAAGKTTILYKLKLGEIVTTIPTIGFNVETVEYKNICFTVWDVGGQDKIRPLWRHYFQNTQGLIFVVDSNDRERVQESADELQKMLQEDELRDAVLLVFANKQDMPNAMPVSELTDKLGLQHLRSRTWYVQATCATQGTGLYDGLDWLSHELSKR

[7] = molecular target: T7, AEA-DA-modified peptides in Neuro2a cells (Mus musculus, UniProt P97311); conditions: AEA-DA-modified peptide MCM6 P97311 59-86, SEQ ID NO 59; probe 100 μM, 12 replicates
T7 construct: endogenous in cells; host or cells: Neuro2a
T7 sequence (P97311 whole entry): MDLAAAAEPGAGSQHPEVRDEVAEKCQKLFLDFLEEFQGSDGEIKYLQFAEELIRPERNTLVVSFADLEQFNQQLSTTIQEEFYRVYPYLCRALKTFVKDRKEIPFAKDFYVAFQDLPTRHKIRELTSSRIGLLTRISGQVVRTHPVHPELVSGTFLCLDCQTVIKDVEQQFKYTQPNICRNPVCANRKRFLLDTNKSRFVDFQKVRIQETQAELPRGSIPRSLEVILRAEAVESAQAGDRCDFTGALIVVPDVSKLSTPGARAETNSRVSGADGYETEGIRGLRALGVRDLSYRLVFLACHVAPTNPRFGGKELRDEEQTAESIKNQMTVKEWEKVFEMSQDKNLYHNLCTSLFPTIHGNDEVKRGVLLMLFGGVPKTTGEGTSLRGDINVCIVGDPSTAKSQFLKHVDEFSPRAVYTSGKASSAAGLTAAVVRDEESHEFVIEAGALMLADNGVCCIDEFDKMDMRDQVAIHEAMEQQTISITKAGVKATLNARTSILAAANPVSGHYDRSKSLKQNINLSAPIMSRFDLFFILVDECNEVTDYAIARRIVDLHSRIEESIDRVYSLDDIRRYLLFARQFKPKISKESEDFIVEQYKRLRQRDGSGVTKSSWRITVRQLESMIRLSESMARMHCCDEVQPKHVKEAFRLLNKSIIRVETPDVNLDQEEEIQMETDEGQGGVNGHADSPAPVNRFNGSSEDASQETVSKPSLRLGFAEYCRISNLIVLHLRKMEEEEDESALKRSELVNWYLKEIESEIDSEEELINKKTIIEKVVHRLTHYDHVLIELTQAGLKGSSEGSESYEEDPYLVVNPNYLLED

[8] = molecular target: T8, AEA-DA-modified peptides in Neuro2a cells (Mus musculus, UniProt Q64310); conditions: probe 100 μM, 12 replicates
T8 construct: endogenous in cells; host or cells: Neuro2a
T8 sequence (Q64310 whole entry): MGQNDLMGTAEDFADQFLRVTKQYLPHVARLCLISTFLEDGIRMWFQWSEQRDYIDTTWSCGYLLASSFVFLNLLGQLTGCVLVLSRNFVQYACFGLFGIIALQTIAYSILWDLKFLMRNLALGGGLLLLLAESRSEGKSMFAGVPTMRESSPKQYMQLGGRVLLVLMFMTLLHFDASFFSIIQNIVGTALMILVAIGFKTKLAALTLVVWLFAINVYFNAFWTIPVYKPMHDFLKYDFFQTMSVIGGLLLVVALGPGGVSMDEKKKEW

[9] = molecular target: T9, AEA-DA-modified peptides in Neuro2a cells (Mus musculus, UniProt Q8BFY9); conditions: AEA-DA-modified peptide TNPO1 Q8BFY9 45-65, SEQ ID NO 114; probe 100 μM, 12 replicates
T9 construct: endogenous in cells; host or cells: Neuro2a
T9 sequence (Q8BFY9 whole entry): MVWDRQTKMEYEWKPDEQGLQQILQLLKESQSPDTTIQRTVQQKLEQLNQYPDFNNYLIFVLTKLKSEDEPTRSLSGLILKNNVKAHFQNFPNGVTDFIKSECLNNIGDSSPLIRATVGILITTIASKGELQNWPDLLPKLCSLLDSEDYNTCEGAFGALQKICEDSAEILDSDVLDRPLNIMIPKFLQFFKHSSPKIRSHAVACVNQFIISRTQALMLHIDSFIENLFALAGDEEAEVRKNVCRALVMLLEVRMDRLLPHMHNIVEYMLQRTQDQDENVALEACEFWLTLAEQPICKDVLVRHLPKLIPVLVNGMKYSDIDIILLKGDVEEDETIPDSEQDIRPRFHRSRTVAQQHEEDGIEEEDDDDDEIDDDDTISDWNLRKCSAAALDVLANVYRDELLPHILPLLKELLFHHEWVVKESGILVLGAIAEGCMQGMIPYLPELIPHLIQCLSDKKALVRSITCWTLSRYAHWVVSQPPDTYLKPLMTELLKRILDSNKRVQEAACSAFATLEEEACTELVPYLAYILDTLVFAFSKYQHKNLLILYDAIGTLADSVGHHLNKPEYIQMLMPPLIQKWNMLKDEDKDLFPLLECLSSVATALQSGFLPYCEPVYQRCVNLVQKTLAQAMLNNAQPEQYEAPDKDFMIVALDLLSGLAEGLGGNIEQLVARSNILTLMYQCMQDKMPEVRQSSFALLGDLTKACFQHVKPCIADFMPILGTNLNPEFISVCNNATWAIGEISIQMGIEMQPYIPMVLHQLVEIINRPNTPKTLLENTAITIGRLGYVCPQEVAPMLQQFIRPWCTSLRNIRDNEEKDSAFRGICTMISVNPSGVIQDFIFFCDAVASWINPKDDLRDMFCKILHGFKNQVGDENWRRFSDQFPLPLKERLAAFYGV

[10] = molecular target: T10, AEA-DA-modified peptides in Neuro2a cells (Mus musculus, UniProt Q8CFE6); conditions: AEA-DA-modified peptide SLC38A2 Q8CFE6 171-179, SEQ ID NO 105; probe 100 μM, 12 replicates
T10 construct: endogenous in cells; host or cells: Neuro2a

[11] = molecular target: T11, AEA-DA-modified peptides in Neuro2a cells (Mus musculus, UniProt Q99JY4); conditions: AEA-DA-modified peptide TRABD Q99JY4 234-253, SEQ ID NO 116; probe 100 μM, 12 replicates
T11 construct: endogenous in cells; host or cells: Neuro2a
T11 sequence (Q99JY4 whole entry): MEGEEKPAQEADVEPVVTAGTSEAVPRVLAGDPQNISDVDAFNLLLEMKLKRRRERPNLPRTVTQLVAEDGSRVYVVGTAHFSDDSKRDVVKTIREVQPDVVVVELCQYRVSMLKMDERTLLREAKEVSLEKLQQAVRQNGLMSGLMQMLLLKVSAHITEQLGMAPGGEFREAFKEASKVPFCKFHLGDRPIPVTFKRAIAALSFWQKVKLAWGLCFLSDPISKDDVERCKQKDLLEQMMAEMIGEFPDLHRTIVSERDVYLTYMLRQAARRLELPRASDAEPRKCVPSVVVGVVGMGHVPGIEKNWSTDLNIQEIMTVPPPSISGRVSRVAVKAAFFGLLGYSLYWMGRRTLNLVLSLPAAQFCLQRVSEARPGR

[12] = molecular target: T12, AEA-DA-modified peptides in Neuro2a cells (Mus musculus, UniProt Q9D8V0); conditions: AEA-DA-modified peptide HM13 Q9D8V0 62-74, SEQ ID NO 48; probe 100 μM, 12 replicates
T12 construct: endogenous in cells; host or cells: Neuro2a
T12 sequence (Q9D8V0 whole entry): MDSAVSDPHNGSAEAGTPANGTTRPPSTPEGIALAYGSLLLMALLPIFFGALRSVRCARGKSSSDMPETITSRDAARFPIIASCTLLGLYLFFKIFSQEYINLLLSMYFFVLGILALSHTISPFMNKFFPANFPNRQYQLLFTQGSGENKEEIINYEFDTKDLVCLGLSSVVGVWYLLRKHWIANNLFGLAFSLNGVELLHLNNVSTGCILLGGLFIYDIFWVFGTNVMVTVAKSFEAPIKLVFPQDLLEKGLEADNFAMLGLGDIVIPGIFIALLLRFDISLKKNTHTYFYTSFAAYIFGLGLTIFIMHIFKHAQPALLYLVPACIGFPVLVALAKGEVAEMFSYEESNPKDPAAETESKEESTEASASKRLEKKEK

## C#CCCCC1(CC/C=C\C/C=C\C/C=C\CCCC(=O)NCCO)N=N1 [AEA-DA, (5Z,8Z,11Z)-N-(2-hydroxyethyl)-14-(3-(pent-4-yn-1-yl)-3H-diazirin-3-yl)tetradeca-5,8,11-trienamide]
[1]
  Times observed: 8
[2]
  Times observed: 5
[3]
  Times observed: 2
[4]
  Times observed: 2
[5]
  Times observed: 9
[6]
  Times observed: 9
[7]
  Times observed: 3
[8]; AEA-DA-modified peptide SURF4 Q64310 2-20, SEQ ID NO 108
  Times observed: 10
[8]; AEA-DA-modified peptide SURF4 Q64310 31-44, SEQ ID NO 109
  Times observed: 3
[9]
  Times observed: 5
[10]
  Times observed: 4
[11]
  Times observed: 4
[12]
  Times observed: 12
